In US6949522B2, “β-2′- or 3′-halonucleosides” (Pharmasset, Inc., priority 2001, dated 2005):
Read-outs that look alike come from different tables or passages of the source. Blank lines part the entries; values can stand above or below the molecule they belong to.

Legend:
HBV = conditions: read-out: inhibition of HBV EC50; cited from earlier work
[1] = target: T1, adenosine deaminase (EC 3.5.4.4) (Bos taurus, UniProt P56658); assay: in vitro; conditions: bovine, pH 7.4
T1 sequence (P56658 1-363): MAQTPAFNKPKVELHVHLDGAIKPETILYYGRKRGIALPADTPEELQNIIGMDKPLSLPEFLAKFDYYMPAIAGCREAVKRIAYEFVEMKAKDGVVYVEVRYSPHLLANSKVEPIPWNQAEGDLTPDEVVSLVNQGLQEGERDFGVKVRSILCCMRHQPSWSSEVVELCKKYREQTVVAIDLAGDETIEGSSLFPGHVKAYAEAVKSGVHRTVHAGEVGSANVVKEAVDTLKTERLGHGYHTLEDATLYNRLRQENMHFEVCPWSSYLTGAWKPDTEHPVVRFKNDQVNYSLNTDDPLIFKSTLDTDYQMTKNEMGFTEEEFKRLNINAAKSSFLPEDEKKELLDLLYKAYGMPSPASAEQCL
Procedure: (§1) Assays were performed at 25° C. in phosphate buffer solution (pH 7.4) with substrate concentrations in the range of 15-100 μM and with 0.15 unit of adenosine deaminase (EC.3.5.4.4. from calf intestinal mucosa). The assays were monitored with a UV spectrometer at 265 nm. Initially, the qualitative assays were performed with D-β-2′-F-4′-S-d4A 24 (200 μM) in the presence of 0.24 unit of adenosine deaminase for 120 minutes to determine whether it is a substrate of this enzyme. The concentration (ct) of each substrate at a certain time (t) was calculated from the absorbance (At) at that time (t), where it was assumed that the total change of absorbance (A0−A∞) was directly related to the disappearance of the substrate.^35 Initial hydrolysis rates for each substrate concentration were measured manually through graphical curve fitting of the concentration versus time data for reaction of each substrate. From Lineweaver-Burke plot of these initial rates, Vmax (maximum velocity) and KM (Michaelis constant) were obtained for each substrate and kcat was also calculated with 0.15 unit of the enzyme (M.W. 33,000) in 2 mL of buffer solution.

[2] = test system: Vero (African green monkey kidney) cells; assay: in vitro; format: cell-based
Procedure: (§2) The compounds were evaluated for their potential toxic effects on uninfected PHA-stimulated human PBM cells, in CEM (T-lymphoblastoid cell line obtained from American Type Culture Collection, Rockville, Md.) and Vero (African green monkey kidney) cells. PBM cells were obtained from whole blood of healthy seronegative donors (HIV-1 and hepatitis B virus) by single-step Ficoll-Hypaque discontinous gradient centrifugation. Log phase Vero, CEM and PHA-stimulated human PBM cells were seeded at a density of 5×10^3, 2.5×10^3 and 5×10^4 cells/well respectively. All of the cells were plated in 96-well cell culture plates containing ten-fold serial dilutions of the test drug. The cultures were incubated for 3, 4 and 5 days for Vero, CEM, and PBM cells, respectively in a humidified 5% CO2-air at 37° C. At the end of incubation, MTT tetrazolium dye solution (Cell titer 96®, Promega, Madison, Wis.) was added to each well and incubated overnight. The reaction was stopped with stop solubilization solution (Promega, Madison, Wis.). The plates were incubated for 5 hours to ensure that the formazan crystals were dissolved. The plates were read at a wavelength of 570 nm using an ELISA plate reader (Bio-tek instruments, Inc., Winooski, Vt., Model # EL 312e). […] Bookmark not defined.

HIV-1LAI = assay: HIV assay in human PBM cells (RT activity of supernatant); format: cell-based; conditions: 5 days, read-out: Anti-HIV-1 Activity (EC50)
Excerpt: Human peripheral blood mononuclear (PBM) cells (obtained from Atlanta Red Cross) were isolated by Ficoll-Hypaque discontinuous gradient centrifugation from healthy seronegative donors. Cells were stimulated with phytohemagglutinin A (Difco, Sparks, Md.) for 2-3 days prior to use. HIV-1LAI obtained from the Centers for Disease Control and Prevention (Atlanta, Ga.) was used as the standard reference virus for the antiviral assays. The molecular infetious clones HIV-1xxBru and HIV-1M184Vpin were obtained from Dr. John Mellors (University of Pittsburgh). Infections were done in bulk for one hour, either with 100 TCID50/1×10^7 cells for a flask (T25) assay or with 200 TCID50/6×10^5 cells/well for a 24 well plate assay. Cells were added to a plate or flask containing a ten-fold serial dilution of the test compound. Assay medium was RPMI-1640 supplemented with heat inactivated 16% fetal bovine serum, 1.6 mM L-glutamine, 80 IU/ml penicillin, 80 μg/ml streptomycin, 0.0008% DEAE-Dextran, 0.045% sodium bicarbonate, and 26 IU/ml recombinant interleukin-2 (Chiron Corp, Emeryville, Calif.). AZT was used as a positive control for the assay. Untreated and uninfected PBM cells were grown in parallel at equivalent cell concentrations as controls. The cell cultures were maintained in a humidified 5% CO2-air at 37° C. for 5 days and supernatants were collected for reverse transcriptase (RT) activity.
Supernatants were centrifuged at 12,000 rpm for 2 hours to pellet the virus. The pellet was solubilized with vortexing in 100 μl virus solubilization buffer (VSB) containing 0.5% Triton X-100, 0.8 M NaCl, 0.5 mM phenylmethylsulfonyl fluoride, 20% glycerol, and 0.05 M Tris, pH 7.8. Ten μL of each sample were added to 75 μL RT reaction mixture (0.06 M Tris, pH 7.8, 0.012 M MgCl2, 0.006 M dithiothreitol, 0.006 mg/ml poly (rA)n, oligo (dT)12-18, 96 μg/ml dATP, and 1 μM of 0.08 mCi/ml ^3H-thymidine triphosphate (Moravek Biochemicals, Brea, Calif.) and incubated at 37° C. for 2 hours. The reaction was stopped by the addition of 100 μL 10% trichloroacetic acid containing 0.05% sodium pyrophosphate. The acid insoluble product was harvested onto filter paper using a Packard Harvester (Meriden, Conn.), and the RT activity was read on a Packard Direct Beta Counter (Meriden, Conn.). The RT results were expressed in counts per minute (CPM) per milliliter.

human PBM cells = assay: in vitro; format: cell-based
Procedure: as §2, with “Log phase Vero, CEM and PHA-stimulated human PBM cells were seeded at a density of 5×10^3, 2.5×10^3 and 5×10^4 cells/well respectively.” left out, “The cultures were incubated for 3, 4 and 5 days for Vero, CEM, and PBM cells, respectively in a humidified 5% CO2-air at 37° C.” left out

[3] = test system: CEM (T-lymphoblastoid cell line); format: cell-based
Procedure: as §2

[4] = target: T2, adenosine deaminase (EC.3.5.4.4. from calf intestinal mucosa) (Bos taurus, UniProt P56658); assay: in vitro
T2 sequence (P56658 1-363): T1 sequence (P56658 1-363)
Procedure: as §1

[5] = target: T2, adenosine deaminase (EC.3.5.4.4. from calf intestinal mucosa); design: adenosine deaminase (EC.3.5.4.4. from calf intestinal mucosa); from tissue; host or cells: calf intestinal mucosa; conditions: literature value (ref. 28); cited from earlier work
HIV-1M184V = conditions: cited from earlier work
HIV-1xxBRU = conditions: cited from earlier work
[6] = human PBM cells, Ref. 11(b) Lee et al.

SMILES: Nc1nc(=O)n([C@@H]2CS[C@H](CO)O2)cc1F [(−)-FTC, β-2′,3′-dideoxy-5-fluoro-3′-thiacytidine]
EC50 (HBV): 0.24 µM

half-life at 20 μM [1]: 30 s
SMILES: Nc1ncnc2c1ncn2[C@@H]1O[C@H](CO)[C@@H](O)[C@H]1O [Adenosine, reference compound]

melting point: 140 °C (dec.)
SMILES: Cc1cn([C@@H]2CC(F)(F)[C@H](CO)O2)c(=O)[nH]c1=O [Compound 26, 1-(2,3-Dideoxy-3,3-difluoro-β-L-ribofuranosyl)thymine]

melting point: 146 to 148 °C (dec.)
SMILES: Cc1cn([C@@H]2C=C(F)[C@H](CO)O2)c(=O)[nH]c1=O [Compound 28, 1-(2,3-dideoxy-3-fluoro-β-L-glycero-pent-2-eno-furanosyl)thymine]

SMILES: Nc1ncnc2c1ncn2[C@@H]1S[C@H](CO)C=C1F [Compound D-27, (−)-9-[(1R,4S)-2,3-dideoxy-2,3-didehydro-2-fluoro-4-thio-β-D-ribofuranosyl]-adenine]
IC50 [2]: > 100 µM | EC50 (HIV-1LAI): 8.1 µM | IC50 (human PBM cells): > 100 µM | IC50 [3]: > 100 µM | kcat ([4]; 25° C., pH 7.4, 0.15 unit of enzyme): 0.94 s⁻¹ | Km ([4]; 25° C., phosphate buffer pH 7.4, substrate of ADA): 18.3 µM | t½ ([4]; bovine): 1980 s

SMILES: Nc1ncnc2c1ncn2[C@@H]1O[C@H](CO)C=C1F [D-2′-F-d4A]
Km [5]: 23 µM

SMILES: Nc1nc(=O)n([C@@H]2O[C@H](CO)C=C2F)cc1F [β-D-2′-F-d4FC]
EC50 (HIV-1M184V; EC50 instead of EC90 (footnote g), Ref. 23, read-out: Activity M184V, anti-HIV activity in EC50): 9.6 µM | FI, fold increase (EC90 HIV-1M184V/EC90 HIV-1xxBRU) (HIV-1M184V; Ref. 11(b) Lee et al.): 3.5 | F1 (fold increase) in EC50 (HIV-1M184V; fold increase in EC50 (footnote g), Ref. 23): 3^g | EC90 (HIV-1M184V; [6]): 34.7 µM | EC50 (HIV-1xxBRU; EC50 instead of EC90 (footnote g), Ref. 23, read-out: Activity WT (xxBRU), anti-HIV activity in EC50): 3.1 µM | EC90 (HIV-1xxBRU; [6]): 9.9 µM
